Source: patent publication US6410245B1, “Compositions and methods for detecting ligand-dependent nuclear receptor and coactivator interactions” (priority 1998, dated 2002)

Test system: VP16TRα, Gal4-SRC-1, and UAS-TK-luciferase
Assay: positive two-hybrid system, luciferase reporter, VP16TRα and Gal4-SRC-1
Format: cell-based
Settings: CHO cells triple transfected; dose-response curve; FIG. 8
From the text: “Receptor” indicates LBD-TRX, with the LBD exemplified by a genereic nuclear receptor (NR) LBD with bound ligand (L), and the TRX domain represented by the VP16 acidic activation domain (VP16). “Coactivator” indicates a CA-TRX, with exemplary CA species being a portion of the SRC-1 protein, a portion of the CBP protein, or isolated LCD sequences from those proteins, the TRX domain is exemplified as the Gal4 DNA binding domain (DBD). “Corepressor” indicates a CR-TRX, with exemplary CR species being the interacting domains (ID1 or ID2) from SMRT or NcoR fused to the TRX domain as exemplified by Gal4 DNA binding domain (DBD). The reporter polynucleotide is exemplified as a UAS-TK-luciferase reporter containing binding sites for Gal4 DBD. CHO cells were triple transfected with these constructs and hormone added.
“Receptor” indicates LBD-TRX, with the LBD exemplified by a genereic nuclear receptor (NR) LBD with bound ligand (L), and the TRX domain represented by the VP16 acidic activation domain (VP16). “Coactivator” indicates a CA-TRX, with exemplary CA species being a portion of the SRC-1 protein, a portion of the CBP protein, or isolated LCD sequences from those proteins, the TRX domain is exemplified as the Gal4 DNA binding domain (DBD). […]

reporter (luciferase) response: dose-dependent
SMILES: N[C@@H](Cc1cc(I)c(Oc2ccc(O)c(I)c2)c(I)c1)C(=O)O [T3, triiodothyronine]
